Patent publication US20240270762A1, “PENICILLIN-BINDING PROTEIN INHIBITORS” (priority 2021, published 2024)
Converted amounts (≈) assume the structure as drawn.

What was measured:
[1] = molecular target: T1, PBP1a from Acinetobacter baumannii (ATCC 19606) (Acinetobacter baumannii, UniProt A0ABX6CK30); test: Bocillin-FL fluorescence polarization competition binding, A. baumannii PBP1a; details: fluorescence polarization competition binding assay using Bocillin-FL; read-out: A. baumannii PBP1a Potency
T1 sequence (A0ABX6CK30 1-851): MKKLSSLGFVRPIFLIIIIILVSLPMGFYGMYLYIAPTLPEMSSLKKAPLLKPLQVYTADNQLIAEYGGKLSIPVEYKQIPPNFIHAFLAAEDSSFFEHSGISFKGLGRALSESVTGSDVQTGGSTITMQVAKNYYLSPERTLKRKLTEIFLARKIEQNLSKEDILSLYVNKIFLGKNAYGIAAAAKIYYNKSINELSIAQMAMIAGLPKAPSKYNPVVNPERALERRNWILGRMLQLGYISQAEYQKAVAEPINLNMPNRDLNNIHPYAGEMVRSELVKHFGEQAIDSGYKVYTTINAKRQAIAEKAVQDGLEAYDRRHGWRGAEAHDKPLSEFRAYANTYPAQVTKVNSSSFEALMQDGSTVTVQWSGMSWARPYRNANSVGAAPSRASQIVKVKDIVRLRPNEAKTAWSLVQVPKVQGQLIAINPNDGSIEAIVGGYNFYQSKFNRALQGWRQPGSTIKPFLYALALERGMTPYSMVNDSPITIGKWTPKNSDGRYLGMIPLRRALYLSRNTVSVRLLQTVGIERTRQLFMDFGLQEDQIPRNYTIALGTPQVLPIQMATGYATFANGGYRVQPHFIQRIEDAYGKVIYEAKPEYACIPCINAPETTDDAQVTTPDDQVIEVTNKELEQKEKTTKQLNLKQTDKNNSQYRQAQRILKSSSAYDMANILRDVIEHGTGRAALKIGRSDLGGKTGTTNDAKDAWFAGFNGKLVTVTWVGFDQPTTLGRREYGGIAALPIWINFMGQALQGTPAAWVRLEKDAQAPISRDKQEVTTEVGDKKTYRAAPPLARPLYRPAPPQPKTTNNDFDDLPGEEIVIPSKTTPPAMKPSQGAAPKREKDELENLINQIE
Summary of the method: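 Purified PBPs pre-incubated with inhibitor (E. coli PBP3 1.5 μM, 30 min; P. aeruginosa PBP3 0.75 μM, A. baumannii PBP1a 1 μM and PBP3 0.2 μM, 15 min), then Bocillin-FL 0.1 μM (0.05 μM for PBP1a) added; FP read up to 60 min. EC50 = concentration halving bound Bocillin-FL.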

N. gonorrhoeae WHO Z = test: Liquid broth MIC in Fastidious broth; details: Neisseria gonorrhoeae, read-out: Minimum Inhibitory Concentration, WHO Z
[2] = tested on: N. gonorrhoeae ATCC 49226; test: Liquid broth MIC in Fastidious broth; details: Neisseria gonorrhoeae, ATCC49226, read-out: Minimum Inhibitory Concentration, ATCC 49226
Description: (§1) Additional antibacterial testing of the series was performed in 8 reference strains of N. gonorrhoeae (ATCC 49226, FA1090, MS 11, WHO G, WHO L, WHO M, WHO K, WHO X, WHO Z, WHO Q, CDC-0197). ATCC 49226, FA1090, MS11, WHO G, WHO L, and WHO M produce wild type or wild-type like PBP2. WHO K, WHO X, WHO Z, WHO Q, and CDC-0197 produce mosaic PBP2. Liquid broth-based assays were used for antibacterial testing of PBP inhibitors in Neisseria gonorrhoeae. Briefly, cryo-preserved bacterial cultures of clinical strains were streaked for isolation on Chocolate Agar (72 g/L (2×) GC Agar Base (BD #228950) and 2% (2×) Hemoglobin was autoclaved at 121° C. for 20 minutes to sterilize. Once cooled to ˜50° C. the 2×GC Agar Base and 2× Hemoglobin solutions are combined and 1% IsoVitaleX Enrichment (BD #211876) was added to the solution). Strains were incubated at 36° C. and 5% CO2 to allow growth of colonies, 24 hours before inoculum preparation. 2-fold serial dilutions of test compounds were conducted in a 96 well plate with a final volume of 75 μL per well at 2-fold the final desired concentration in Fastidious broth (Remel #R07664). For preparation of assay inoculum, a direct suspension was prepared by aseptically swabbing 10-15 colonies from agar plates into culture tubes containing 2 mL of fresh sterile saline. After the dilution plates were set up, direct suspensions were then diluted in a cuvette containing sterile saline and the optical density was measured at 600 nm. Inocula were diluted such that 75 μL of this culture in Fastidious broth results in a starting bacterial concentration of 5×10^5 CFU/mL when added to the dilution plates. The plates were incubated for ˜24 hours at 36° C. and 5% CO2.

N. gonorrhoeae FA1090 = test: Liquid broth MIC in Fastidious broth; details: Neisseria gonorrhoeae, FA1090, read-out: Minimum Inhibitory Concentration, FA 1090
Description: as §1

N. gonorrhoeae WHO K = test: Liquid broth MIC in Fastidious broth; details: Neisseria gonorrhoeae, read-out: Minimum Inhibitory Concentration, WHO K
Description: (§2) Liquid broth-based assays were used for antibacterial testing of PBP inhibitors in Neisseria gonorrhoeae. Briefly, cryo-preserved bacterial cultures of clinical strains were streaked for isolation on Chocolate Agar (72 g/L (2×) GC Agar Base (BD #228950) and 2% (2×) Hemoglobin was autoclaved at 121° C. for 20 minutes to sterilize. Once cooled to ˜50° C. the 2×GC Agar Base and 2× Hemoglobin solutions are combined and 1% IsoVitaleX Enrichment (BD #211876) was added to the solution). Strains were incubated at 36° C. and 5% CO2 to allow growth of colonies, 24 hours before inoculum preparation. 2-fold serial dilutions of test compounds were conducted in a 96 well plate with a final volume of 75 μL per well at 2-fold the final desired concentration in Fastidious broth (Remel #R07664). For preparation of assay inoculum, a direct suspension was prepared by aseptically swabbing 10-15 colonies from agar plates into culture tubes containing 2 mL of fresh sterile saline. After the dilution plates were set up, direct suspensions were then diluted in a cuvette containing sterile saline and the optical density was measured at 600 nm. Inocula were diluted such that 75 μL of this culture in Fastidious broth results in a starting bacterial concentration of 5×10^5 CFU/mL when added to the dilution plates. The plates were incubated for ˜24 hours at 36° C. and 5% CO2.

N. gonorrhoeae WHO L = test: Liquid broth MIC in Fastidious broth; details: Neisseria gonorrhoeae, read-out: Minimum Inhibitory Concentration, WHO L
N. gonorrhoeae WHO X = test: Liquid broth MIC in Fastidious broth; details: Neisseria gonorrhoeae, read-out: Minimum Inhibitory Concentration, WHO X
N. gonorrhoeae WHO Q = test: Liquid broth MIC in Fastidious broth; details: Neisseria gonorrhoeae, read-out: Minimum Inhibitory Concentration, WHO Q
Description: as §2

`O=C(NCCCN1CCN(C(=O)NC(C(=O)N[C@H]2Cc3ccc(F)c(C(=O)O)c3OB2O)c2cc(F)c(O)c(O)c2Cl)C1=O)c1ccc(O)cc1` (stereo partly drawn) [Example 280, (3R)-3-(2-(2-chloro-5-fluoro-3,4-dihydroxyphenyl)-2-(3-(3-(4-hydroxybenzamido)propyl)-2-oxoimidazolidine-1-carboxamido)acetamido)-7-fluoro-2-hydroxy-3,4-dihydro-2H-benzo[e][1,2]oxaborinine-8-carboxylic acid] showed an IC50 [1] of over 250 µM, an MIC (N. gonorrhoeae WHO Z) of 16 to 32 µg/mL (≈ 21.9 to 43.7 µM) and an MIC [2] of 16 to 32 µg/mL (≈ 21.9 to 43.7 µM). The MIC (N. gonorrhoeae FA1090) was 4 to 8 µg/mL (≈ 5.47 to 10.9 µM), the MIC (N. gonorrhoeae WHO K) was over 64 µg/mL and the MIC (N. gonorrhoeae WHO L) was over 64 µg/mL. It also gave an MIC (N. gonorrhoeae WHO X) of over 64 µg/mL and an MIC (N. gonorrhoeae WHO Q) of over 64 µg/mL.
